Reference: the NIST ThermoML archive (doi:10.1021/acs.jced.5b00737)
± gives the expanded uncertainty stated by the source.

Settings: 298.15 K; Liquid; Gas chromatography

Compound	vapor or sublimation pressure
c1ccc(C2(N3CCCCC3)CCCCC2)cc1 [1-(1-phenylcyclohexyl)piperidine]	3e-05 ± 1.2e-05 kPa
CC(Cc1ccc(C(C)(C)C)cc1)CN1CCCCC1 (configuration not stated) [1-(3-(4-(tert-butyl)phenyl)-2-methylpropyl)piperidine]	1.6e-05 ± 8e-06 kPa
